The text below walks through data of US20030225007A1, “Sulfonamide derivatives of 3-substituted imidazol[1,2-d]-1,2,4-thiadiazoles and 3-substituted-[1,2,4] thiadiazolo[4,5-a] benzimidazole as inhibitors of fibrin cross-linking and transglutaminases” (Apotex Inc., priority 2002, published 2003).

Read-outs that look alike come from different tables or passages of the source.

Assay [1] deals with T1, Factor XIIIa (activated FXIII) (Homo sapiens, UniProt P00488).
T1 construct: purchased Enzyme Research Laboratories, Ltd
T1 sequence (P00488 39-732 limits assumed): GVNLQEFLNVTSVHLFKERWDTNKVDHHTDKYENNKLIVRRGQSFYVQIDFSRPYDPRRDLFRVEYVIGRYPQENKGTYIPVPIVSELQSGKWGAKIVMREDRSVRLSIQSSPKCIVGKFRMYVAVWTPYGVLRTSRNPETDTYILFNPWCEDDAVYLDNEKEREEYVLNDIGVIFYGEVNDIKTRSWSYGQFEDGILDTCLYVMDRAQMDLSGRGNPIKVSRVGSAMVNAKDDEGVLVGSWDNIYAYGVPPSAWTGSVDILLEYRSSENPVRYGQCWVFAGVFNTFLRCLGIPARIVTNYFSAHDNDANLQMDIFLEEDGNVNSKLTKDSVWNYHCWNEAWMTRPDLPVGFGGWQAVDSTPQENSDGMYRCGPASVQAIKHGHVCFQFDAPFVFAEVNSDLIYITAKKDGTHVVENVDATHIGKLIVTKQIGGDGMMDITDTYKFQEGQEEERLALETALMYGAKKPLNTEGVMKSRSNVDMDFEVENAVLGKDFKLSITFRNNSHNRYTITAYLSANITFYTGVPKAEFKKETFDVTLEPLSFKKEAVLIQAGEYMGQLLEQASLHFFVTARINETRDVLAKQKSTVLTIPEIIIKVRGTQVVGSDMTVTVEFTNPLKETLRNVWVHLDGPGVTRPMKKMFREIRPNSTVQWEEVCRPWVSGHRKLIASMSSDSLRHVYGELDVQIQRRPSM
Put plainly: Inactivation of purified Factor XIIIa (monodansylcadaverine incorporation into dimethylcasein, fluorescence). The class given is biochemical. As for the experimental part:
FXIII (0.5 mg/mL, Enzyme Research Laboratories, Ltd.) in 50 mM Tris-HCl pH 7.5 containing 100 mM NaCl, 40 mM CaCl2, 1 mM EDTA and 0.1% poly(ethylene glycol) (app. MW=8000) was activated by incubation with 10 NIH units/mL of human thrombin (Calbiochem) at 37° C. for 20 min. Thrombin was quenched with 20 NIH units/mL of hirudin from Leech (Sigma).
Inhibitor solution in DMSO (14 μL) was added to 120 μL of 250 mM Tris-Cl pH 7.5 containing 40 mM CaCl2 and 1 mM EDTA and the solution was incubated at 37° C. for two minutes. Activated FXIII (5 μL, 0.5 mg/mL) was added and the mixture was incubated at 37° C. for 5 min.
An assay mixture composed of 50 mM Tris-Cl pH 8.0, 10 mM CaCl2, 1 mM EDTA, 0.1% poly(ethylene glycol) (app. MW=1000) and 20 μM monodansylcadaverine was prepared in a spectrofluorometric cell in a final volume of 2880 μL. Dimethylcasein (8 μL, 1% in 50 mM sodium phosphate pH 7.5) was added and the solution was incubated at 37° C. for a few minutes. To assay the residual enzyme activity, 120 μL of the solution containing the enzyme and the inhibitor was transferred to the assay mixture. The covalent incorporation of monodansylcadaverine into casein was monitored by an increase in fluorescence at λexc=360 nm and λem=500 nm as previously described (Curtis, C. G.; Lorand, L. Methods Enzymol. 1976, 45, 177-191). To determine uninhibited enzyme activity, DMSO was used in place of inhibitor solution in the above assay. IC50 were determined by plotting the percent of remaining enzyme activity against logarithm of inhibitor concentration. IC50 is defined here as an inhibitor concentration resulting in 50% enzyme inactivation after 5-min incubation of the enzyme with the inhibitor in the absence of the substrate. Second order rate constants for inactivation were determined using method described by Kitz and Wilson (Kitz, R.; Wilson, I. J. Biol. Chem. 1962, 237, 3245).

In another assay the target is T2, Guinea pig liver TGase (Cavia cutleri, UniProt P08587).
T2 construct: Guinea pig liver TGase; from tissue; host or cells: guinea pig liver
T2 sequence (P08587 2-690): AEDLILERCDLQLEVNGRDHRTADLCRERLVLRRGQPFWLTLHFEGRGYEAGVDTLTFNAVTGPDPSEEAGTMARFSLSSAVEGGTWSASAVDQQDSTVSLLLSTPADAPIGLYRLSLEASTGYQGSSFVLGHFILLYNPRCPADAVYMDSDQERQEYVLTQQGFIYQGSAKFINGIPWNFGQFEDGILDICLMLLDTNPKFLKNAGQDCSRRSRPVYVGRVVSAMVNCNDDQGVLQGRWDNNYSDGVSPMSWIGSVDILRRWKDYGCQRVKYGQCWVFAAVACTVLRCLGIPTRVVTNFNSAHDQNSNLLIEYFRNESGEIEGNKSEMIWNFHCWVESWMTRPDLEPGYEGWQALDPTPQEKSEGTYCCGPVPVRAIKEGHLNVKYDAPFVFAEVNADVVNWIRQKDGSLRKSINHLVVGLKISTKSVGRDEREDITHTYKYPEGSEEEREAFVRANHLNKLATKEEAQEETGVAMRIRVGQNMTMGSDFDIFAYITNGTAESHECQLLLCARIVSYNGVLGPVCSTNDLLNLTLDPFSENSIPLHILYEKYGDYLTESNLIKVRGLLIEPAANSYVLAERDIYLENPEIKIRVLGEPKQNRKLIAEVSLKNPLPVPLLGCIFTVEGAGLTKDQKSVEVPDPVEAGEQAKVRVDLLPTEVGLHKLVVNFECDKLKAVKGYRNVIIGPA
The assay can be described thus: Enzyme selectivity: inactivation of tissue type transglutaminase. The class given is biochemical. Conditions: 5-min incubation at 37° C. in the absence of substrate. Here is the method:
Enzyme selectivity . Inactivation of tissue type transglutaminase: Inhibitor solution in DMSO (5 μL) was added to 250 mM Tris-Cl pH 7.5 containing 40 mM CaCl2 and 1 mM EDTA in a final volume of 42 μL. Guinea pig liver TGase (3 μL, 2.5 mg/mL in 5 mM Tris-HCl pH 7.5, 2 mM EDTA) was added and the mixture was incubated for 5 min. at 37° C.
An assay mixture composed of 50 mM Tris-Cl, pH 8.0, 10 mM CaCl2, 1 mM EDTA, 0.1% poly(ethylene glycol) (app. MW=1000) and 20 μM monodansylcadaverine was prepared in a spectrofluorimetric cell in a final volume of 2952 μL. Dimethylcasein (8 μL, 1% in 50 mM sodium phosphate pH 7.5) was added and the mixture was incubated at 37° C. for a few minutes. To assay the residual enzyme activity, 40 μL of the solution containing the enzyme and the inhibitor was transferred to the assay mixture. The covalent incorporation of monodansylcadaverine into casein was monitored by an increase in fluorescence at λexc=360 nm and λem=500 nm, as previously described ((Curtis, C. G.; Lorand, L. Methods Enzymol. 1976, 45, 177-191). To determine uninhibited enzyme activity, DMSO was used in place of inhibitor solution in the above assay. IC50 values were determined by plotting the percent of remaining enzyme activity against logarithm of inhibitor concentration. IC50 is defined here as inhibitor concentration resulting in 50% enzyme inactivation after 5-min incubation of the enzyme with the inhibitor in the absence of the substrate. Second order rate constants for inactivation were determined using method described by Kitz and Wilson (Kitz, R.; Wilson, I. J.Biol.Chem. 1962,237, 3245).

The mark [2] stands for this setting: purified activated FXIII, 50% enzyme inactivation after 5-min incubation with inhibitor at 37° C. in the absence of substrate, read-out: FXIIIa (IC50 in μM).

For `O=C(N1CCc2ccc(S(=O)(=O)NCCCCCCNc3nsc4nccn34)cc2C1)C(F)(F)F`, the IC50 in assay [1] (values without asterisk, purified FXIIIa, 5-min incubation, read-out: FXIIIa IC50 determined by method in Example 16) was 11 µM; on Guinea pig liver TGase (read-out: TGAse IC50, Guinea pig liver TGase) it was 17 µM.
`CN(CCCCCCNS(=O)(=O)c1ccccc1[N+](=O)[O-])c1nsc2nccn12` [2-NO2-Ph / CH3, N-{6-[imidazo[1,2-d][1,2,4]thiadiazol-3-yl(methyl)amino]hexyl}-2-nitrobenzenesulfonamide] showed an IC50 on Guinea pig liver TGase (TGAse IC50, Guinea pig liver TGase) of 6.2 µM.
As to `N#Cc1ccc(S(=O)(=O)NCCCCCCNc2nsc3nccn23)cc1` [4-CN-Ph, 4-cyano-N-[6-(imidazo[1,2-d][1,2,4]thiadiazol-3-ylamino)hexyl]benzenesulfonamide], the IC50 in assay [1] (setting [2]) turned out to be 1.6 µM.
As to `O=C(O)c1ccc(S(=O)(=O)NCCCCCCNc2nsc3nccn23)cc1` [4-COOH-Ph, 4-carboxy-N-[6-(imidazo[1,2-d][1,2,4]thiadiazol-3-ylamino)hexyl]benzenesulfonamide], the IC50 in assay [1] (setting [2]) stood at 11.4 µM.
Take `COc1ccc(S(=O)(=O)NCCCCCCNc2nsc3nccn23)cc1` [4-OMe-Ph, N-[6-(imidazo[1,2-d][1,2,4]thiadiazol-3-ylamino)hexyl]-4-methoxybenzenesulfonamide]: the IC50 in assay [1] (setting [2]) worked out at 1.4 µM.
Still for that read-out and setting: for `O=S(=O)(NCCCCCCNc1nsc2nccn12)c1ccc(-c2ccccc2)cc1` [4-Ph-Ph, N-[6-(imidazo[1,2-d][1,2,4]thiadiazol-3-ylamino)hexyl]-4-phenylbenzenesulfonamide] the value was 1.3 µM; for `Cc1ccc(S(=O)(=O)N[C@@H](CCCCNc2nsc3nccn23)C(=O)N2CCN(Cc3ccccc3)CC2)cc1` [4-benzyl-{N^ε-imidazo[1,2-d][1,2,4]thiadiazol-3-yl-N^α-[(4-methylphenyl)sulfonyl]lysyl}piperazine], 6.5 µM.
On the same count and under the same terms, the result for `O=C(O)CCCCCN(CCCCCCNc1nsc2nccn12)S(=O)(=O)c1ccc(F)cc1F` [5 / OH / 2-F-4-F-Ph, 6-{[(2,4-difluorophenyl)sulfonyl][6-(imidazo[1,2-d][1,2,4]thiadiazol-3-ylamino)hexyl]amino}hexanoic acid] reads 6.8 µM; that for `CN(CCCCCCN(C)S(=O)(=O)c1ccccc1[N+](=O)[O-])c1nsc2nccn12` [CH3 / CH3 / 2-NO2-Ph, N-{6-[imidazo[1,2-d][1,2,4]thiadiazol-3-yl(methyl)amino]hexyl}-N-methyl-2-nitrobenzenesulfonamide], 0.6 µM.
Still for that read-out and setting: the result for `CN(CCCCCCNc1nsc2nccn12)S(=O)(=O)c1cccc2ccccc12` [CH3 / H / 1-naphthyl, N-[6-(imidazo[1,2-d][1,2,4]thiadiazol-3-ylamino)hexyl]-N-methylnaphthalene-1-sulfonamide] reads 2.4 µM.
For `CN(CCCCCCNc1nsc2nccn12)S(=O)(=O)c1ccccc1[N+](=O)[O-]` [CH3 / H / 2-NO2-Ph, N-[6-(Imidazo[1,2-d][1,2,4]thiadiazol-3-ylamino)hexyl]-N-methyl-2-nitro benzene sulfonamide], the IC50 in assay [1] (setting [2]) was 1.3 µM.
On the same count and under the same terms, the result for `COC(=O)CN(CCCCCCNS(=O)(=O)c1ccccc1[N+](=O)[O-])c1nsc2nccn12` [H / CH2COOMe / 2-NO2-Ph, methyl N-imidazo[1,2-d][1,2,4]thiadiazol-3-yl-N-(6-{[(2-nitrophenyl)sulfonyl]amino}hexyl)glycinate] reads 0.88 µM; that for `Cc1ccc(S(=O)(=O)N[C@@H](CCCCNc2nsc3nccn23)C(=O)NCc2ccc(F)cc2)cc1` [N-(4-fluorobenzyl)-N^ε-imidazo[1,2-d][1,2,4]thiadiazol-3-yl-N^α-[(4-methylphenyl)sulfonyl]lysinamide], 6.7 µM.
Consider `O=[N+]([O-])c1ccc(NCCCCCCNc2nsc3nccn23)c([N+](=O)[O-])c1` [N^1-(2,4-dinitrophenyl)-N^6-imidazo[1,2-d][1,2,4]thiadiazol-3-ylhexane-1,6-diamine], for which the kinact/KI in assay [1] (purified Factor XIIIa, method of Kitz and Wilson, read-out: Second order rate constant for inactivation) is 8900 M⁻¹ s⁻¹.
As to `O=S(=O)(NCCCCCCNc1nsc2nccn12)c1cccc2cccnc12` [Quinoline-8-, N-[6-(imidazo[1,2-d][1,2,4]thiadiazol-3-ylamino)hexyl]quinoline-8-sulfonamide], the IC50 in assay [1] (setting [2]) was 2.6 µM.
Still for that read-out and setting: for `Cc1ccc(S(=O)(=O)NC(CCCCNc2nsc3nccn23)C(N)=O)cc1` (stereo not shown) [—CH(CONH2)—NH— / 4-Me-Ph] the value was 9.1 µM.
On the same count and under the same terms, the result for `Cc1ccc(S(=O)(=O)N[C@@H](CCCCNc2nsc3nccn23)C(=O)O)cc1` [—CH(COOH)—NH— / 4-Me-Ph, N^ε-imidazo[1,2-d][1,2,4]thiadiazol-3-yl-N^α-[(4-methylphenyl)sulfonyl]lysine] reads 6.7 µM.
The same measure, in the same setting: for `COC(=O)[C@H](CCCCNc1nsc2nccn12)NS(=O)(=O)c1ccc(C)cc1` [—CH(COOMe)—NH— / 4-Me-Ph, methyl N^ε-imidazo[1,2-d][1,2,4]thiadiazol-3-yl-N^α-[(4-methylphenyl)sulfonyl]lysinate] the value was 7 µM.

The term IC50 denotes the concentration that inhibits the measured activity by half.
